Reference: patent US20210023232A1, “COMBINATION OF POLYETHYLENE GLYCOL AND RAPAMYCIN AND USE THEREOF” (JENKEM TECHNOLOGY CO., LTD. (TIANJIN), priority 2018, published 2021)

System: KLH antibody
Test: Influence on keyhole limpet hemoeyanin (KLH) antibody level in immunized mice, serum ELISA potency assay
Format: in vivo, mouse
Settings: for KLH antibody ELISA OD value, data obtained after the third immunization (1: 1K) / KLH antibody ELISA OD value, data obtained after the fourth immunization (1: 1K) / KLH antibody ELISA OD value, data obtained after the third immunization (1: 3K) / KLH antibody ELISA OD value, data obtained after the fourth immunization (1: 3K): Balb/c mice immunized with KLH, test substance given on day 0 and day 7, x ± sd; for KLH antibody ELISA OD value, data obtained after the third immunization (1: 1K) / KLH antibody ELISA OD value, data obtained after the fourth immunization (1: 1K): serum dilution 1:1K; for KLH antibody ELISA OD value, data obtained after the third immunization (1: 1K) / KLH antibody ELISA OD value, data obtained after the third immunization (1: 3K): tail blood day 28-29; for KLH antibody ELISA OD value, data obtained after the fourth immunization (1: 1K) / KLH antibody ELISA OD value, data obtained after the fourth immunization (1: 3K): tail blood day 40-41; for KLH antibody ELISA OD value, data obtained after the third immunization (1: 3K) / KLH antibody ELISA OD value, data obtained after the fourth immunization (1: 3K): serum dilution 1:3K
Description: 2.4.1. Antigenic Information: Immunogen: KLH; Tested Substance: KLH
Primary immunization: On the first day, 100 ug antigen (immunogen) and Freund's complete adjuvant in the same volume were formed into a water-in-oil compound by means of mutual injection with a syringe, and then the compound was given to each of 18 mice by subcutaneous multi-point injection.
Second immunization: On the 14th day, 100 ug antigen (immunogen) and Freund's incomplete adjuvant in the same volume were formed into a water-in-oil compound by means of mutual injection with a syringe, and then the compound was given to each of 18 mice by subcutaneous multi-point injection.
Third immunization: On the 24th day, 100 ug antigen (immunogen) and Freund's incomplete adjuvant in the same volume were formed into a water-in-oil compound by means of mutual injection with a syringe, and then the compound was given to each of 18 mice by subcutaneous multi-point injection.
Test of tail blood: On the 28th-29th day, about 20 ul tail blood was collected from the tail vein, followed by 30 min RT and 5 min 5000 rpm centrifugation; then haemocyte precipitate was removed; and serum was taken for Elisa potency assay.
Fourth immunization: On the 34th day, 100 ug antigen (immunogen) and Freund's incomplete adjuvant in the same volume were formed into a water-in-oil compound by means of mutual injection with a syringe, and then the compound was given to each of 18 mice by subcutaneous multi-point injection.
Group G2 (Group IV): immunization was performed with reference to group G1; moreover, […] JK1208R (prepared in Example 1) was given by intravenous injection on the 0th day and 7th day, respectively.
Group G2 (Group IV): immunization was performed with reference to group G1; moreover, 52 μg rapamycin was given by oral administration on the 0th day and 7th day, respectively.
Test of tail blood: On the 40th-41st day, about 20 ul tail blood was collected from the tail vein, followed by 30 min RT and 5 min 5000 rpm centrifugation; then haemocyte precipitate was removed; and serum was taken for ELISA potency assay.
Coating: 10 ug antigen (tested substance) and 10 ml coating buffer (1.6 g […]+2.92 g NaHCO3+100 ml deionized water) were mixed; the solution was applied to the Elisa microplate, 100 ul per pore; the microplate was incubated for 2 h at 37° C. or kept still overnight at 4° C.
Blocking: The antigen coating buffer was sucked and removed from the coated microplate; a blocking buffer (5% dried skimmed milk and coating buffer) was directly added, 150 ul per pore; the microplate was treated for 2 h at 37° C., followed by three times of washing with de-ionized water; then the microplate was provisionally stored at 4° C.
Assay: serum and 1×PBS was mixed at a ratio of 1:1000; 150 ul diluent was added into the first pore; 100 ul 1×PBS were respectively added into each of the 2nd-8th pores; 50 ul liquid was transferred from the first pore into the second pore, followed by suction blow for 10 times; then, 50 ul liquid was transferred into the third pore, followed by suction blow for 10 times; next, 50 ul liquid was transferred into the fourth pore, followed by suction blow for 10 times; the test was done in the similar way in turn until the 7th pore, 50 ul liquid was removed from the 7th pore; the […] pore was a negative control group; the microplate was incubated for 1 h at 37° C., followed by three times of washing with de-ionized water; then a second antibody (goat-anti-mouse IgG-HRP 1:10000 1×PBS) was added, 100 ul each pore; the microplate was incubated for 30 min at 37° C., followed by three times of washing with de-ionized water; a chromogenic solution was added (according to the instructions on the reagent box), 100 ul each pore; the microplate was incubated for 10 min at 37° C. and then ended (2M sulphuric acid, 30 ul per pore). The OD value was tested with the microplate reader.

Compound: CO[C@H]1C[C@@H]2CC[C@@H](C)[C@@](O)(O2)C(=O)C(=O)N2CCCC[C@H]2C(=O)O[C@H]([C@H](C)C[C@@H]2CC[C@@H](O)[C@H](OC)C2)CC(=O)[C@H](C)/C=C(\C)[C@@H](O)[C@@H](OC)C(=O)[C@H](C)C[C@H](C)/C=C/C=C/C=C/1C [rapamycin]
- KLH antibody ELISA OD value, data obtained after the third immunization (1: 1K): 1.77 ± 0.33
- KLH antibody ELISA OD value, data obtained after the fourth immunization (1: 1K): 2.56 ± 0.11
- KLH antibody ELISA OD value, data obtained after the third immunization (1: 3K): 1.49 ± 0.38
- KLH antibody ELISA OD value, data obtained after the fourth immunization (1: 3K): 2.40 ± 0.24

Compound: monomethoxy polyethylene glycol-glutamic dipeptide-rapamycin [JK1208R]
- KLH antibody ELISA OD value, data obtained after the third immunization (1: 1K): 1.33 ± 0.24
- KLH antibody ELISA OD value, data obtained after the fourth immunization (1: 1K): 1.85 ± 0.32
- KLH antibody ELISA OD value, data obtained after the third immunization (1: 3K): 0.86 ± 0.20
- KLH antibody ELISA OD value, data obtained after the fourth immunization (1: 3K): 1.54 ± 0.31
- Effect on generation of the KLH antibody (after the fourth immunization): could remarkably resist the generation of the KLH antibody
- Statistical difference from immune model group after the fourth immunization (at 1:1K and 1:3K): show remarkably difference
- Statistical difference from immune model group after the third immunization (at 1:3K): show remarkably difference
